From patent US4292249A, “25-Hydroxy-24-oxocholestane derivatives and preparation thereof” (priority 1979, dated 1981) come the findings set out here.

For experiment [1], the target named is T1, 1α,25-dihydroxy cholecalciferol-receptor in the chick's intestinal tube (Gallus gallus, UniProt O42392).
T1 construct: 1α,25-dihydroxy cholecalciferol-receptor in the chick's intestinal tube; from tissue; host or cells: chick intestine
T1 sequence (O42392 1-451): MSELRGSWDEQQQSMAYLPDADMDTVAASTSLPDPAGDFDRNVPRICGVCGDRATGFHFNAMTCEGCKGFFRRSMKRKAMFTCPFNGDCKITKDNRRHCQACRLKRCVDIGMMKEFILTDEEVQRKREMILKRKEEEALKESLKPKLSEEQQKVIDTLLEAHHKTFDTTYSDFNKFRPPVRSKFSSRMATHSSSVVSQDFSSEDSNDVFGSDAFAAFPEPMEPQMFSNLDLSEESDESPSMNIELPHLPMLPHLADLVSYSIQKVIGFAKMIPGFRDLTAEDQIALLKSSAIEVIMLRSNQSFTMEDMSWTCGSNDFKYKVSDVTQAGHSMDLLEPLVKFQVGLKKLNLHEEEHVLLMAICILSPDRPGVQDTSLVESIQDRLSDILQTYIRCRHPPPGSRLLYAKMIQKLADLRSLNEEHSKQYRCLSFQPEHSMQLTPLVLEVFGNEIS
Nature of the experiment: Combination (binding) with the 1α,25-dihydroxy cholecalciferol-receptor, competitive displacement.

Experiment [2] relates to calcium absorption at the intestinal tube. Nature of the experiment: Effect to promote calcium absorption from the intestinal tract (everted gut sac method). Conditions: vitamin D-deficient rats, 250 ng/head intravenously, measured 4, 8, 24 and 48 hour later. It counts as in vivo, Wistar male rats. As to the method: They were killed 4 hour, 8 hour, 24 hour and 48 hour later, and calcium absorption at the intestinal tube was measured by the everted gut sac method [see Martin, D. L. and Deluca, H. F., Amer, J. Physiol.

Regarding `C=C1/C(=C\C=C2/CCC[C@]3(C)[C@@H]([C@H](C)CCC(=O)C(C)(C)O)CC[C@@H]23)C[C@@H](O)C[C@@H]1O` [1α,25-dihydroxy-24-oxo-cholecarciferol, 1α,25-dihydroxy-24-oxo cholecalciferol], the “50% Displacement” value in experiment [1] (chick intestinal receptor) came out at 138 pg. For the same molecule, in experiment [1] (relative to 1α,25-dihydroxy cholecalciferol = 1), the Molar ratio was 3.

As to `C=C1CC[C@H](O)C/C1=C/C=C1\CCC[C@]2(C)[C@@H]([C@H](C)CCC(=O)C(C)(C)O)CC[C@@H]12` [25-hydroxy-24-oxo-cholecalciferol, 25-hydroxy-24-oxocholecalciferol], in experiment [2], the “time after administration at which the effect on intestinal calcium absorption showed” value is listed as “about 4 hours” and the “time for which the effect on intestinal calcium absorption continued” value came out at 44 h.
